# According to patent US7767665B2, “1,3-benzothiazinone derivatives and use thereof” (Takeda Pharmaceutical Company Limited, priority 2001, dated 2010):
# Tests used:
# [1] = system: primary heart muscle cells from newborn rats; test: Inhibitory activity on heart muscle cell apoptosis (serum-free culture, viable cell number by WST-8); assay type: cell-based, Wister rats; details: Rattus norvegicus, 96 h; mean of three independent experiments; concentration required to increase the mean viable cell number by 50% as compared with that in the absence of test compounds; serum-free Medium 199, 4 days
# Excerpt: Inhibitory Activity on Heart Muscle Cell Apoptosis
# Newborn rats (within 1 day afterbirth) were obtained from pregnant Wister rats purchased from Charles River, anesthetized under ether, and sterilized with 70% ethanol, and then their hearts were excised with tweezers. The excised hearts were washed with a phosphate-buffered physiological saline (T900; Takara) and cut into pieces with surgical scissors. These tissue pieces were washed 4 to 5 times with a phosphate-buffered physiological saline to remove a majority of blood-derived non-heart muscle cells. To the tissue pieces derived from 10 newborns, 5 ml of enzyme solution (1.25 mg trypsin (Difco) and 0.25 mg collagenase (Sigma) per ml of phosphate-buffered saline (PBS)) was added and the mixture was stirred with a stirrer at 37° C. for 15 minutes. Another 2.5 ml enzyme solution was then added twice repeatedly at a 15-minutes interval. Then, Medium 199 (Gibco) containing 10% fetal calf serum (Biowiker) was added in a half volume of the enzyme solution to terminate the enzyme reaction. The cells were filtered through a Cell Strainer (Falcon) and then centrifuged at 400×g for 5 minutes, whereby the cells were collected.
# The cells thus collected from 10 newborns were suspended in 50 ml Medium 199 containing 10% fetal calf serum, plated onto 100 mm Petri dishes (Iwaki) in a volume of 10 ml/dish and cultured for 1 hour in a CO2 incubator set at 5% CO2 and 37° C. The cells were then recovered, filtered through a Cell Strainer and centrifuged at 400×g for 5 minutes to collect the primary heart muscle cells derived from newborn rats.
# Then, the heart muscle cells from 10 newborn rats were suspended in 2 ml low-isotonic solution (prepared by dissolving 8.29 g NH4Cl, 1.0 g KHCO3, 37 mg EDTA/2Na (ethylenediaminetetraacetic acid disodium) (Dojindo) in 1 L of water) and left for 3 minutes to disrupt erythrocytes. After 10 ml Medium 199 containing 10% fetal calf serum was added thereto, the primary heart muscle cells from newborn rats were collected by centrifugation at 400×g for 5 minutes. The cells were suspended in Medium 199 containing 10% fetal calf serum and then filtered through a cell strainer. After 0.3% trypan blue was added to, and mildly mixed with, an aliquot of the resulting cell suspension, the number of heart muscle cells was counted on an erythrocyte counting plate.
# The primary heart muscle cells from newborn rats were suspended at a density of 3×10^6 cells/ml in Medium 199 containing 10% fetal calf serum, put onto a 96-well plate in a volume of 0.1 ml/well, and then cultured in a CO2 incubator set at 5% CO2 and 37° C. After the plate was stirred with a micromixer (Taiyo Kagaku Kogyo), the medium was exchanged 3 times with serum-free Medium 199, and then test compounds were added thereto. The cells were cultured for additional 4 days to induce apoptosis. Then, fetal calf serum was added thereto at a concentration of 10%, and the cells were further cultured for about 17 hours in a CO2 incubator set at 5% CO2 and 37° C. Finally, the number of viable cells was determined with Cell Counting Kit (Dojindo) using WST-8 (2-(2-methoxy-4-nitrophenyl)-3-(4-nitrophenyl)-5-(2,4-disulfophenyl)-2H-tetrazolium, monosodium salt) as the coloring substrate to determine the inhibition of the heart muscle cell apoptosis.
# The above-mentioned experiment was triplicated in an independent manner.
# The Mean minimal effective concentration (±SD) was shown for each test compound (Compounds 1 to 5 obtained in Reference Examples) in Table 1. In Table 1, the minimal effective concentration is defined as the concentration required to increase the mean viable cell number by 50% as compared with that in the absence of test compounds.
SMILES,melting point,minimal effective concentration [1] [µM]
"CCCN(C(=O)c1cccc(-c2nc(=O)c3ccccc3s2)n1)C(=O)N(C)C [Example 52, N,N-Dimethyl-N′-[[6-(4-oxo-4H-1,3-benzothiazin-2-yl)-2-pyridyl]carbonyl]-N′-propylurea]",190.8 to 192.4 °C,0.01
"COc1ccc2c(=O)nc(-c3ccccn3)sc2c1 [Example 54, 7-methoxy-2-(2-pyridyl)-4H-1,3-benzothiazine-4-one]",200 to 202.2 °C,0.037
O=c1nc(-c2cc[n+]([O-])cc2)sc2ccccc12 [Example 55],248.2 to 251.7 °C,0.016
"O=C(O)CCOCCCc1cccc(-c2nc(=O)c3ccccc3s2)n1 [Example 67, 3-{3-[6-(4-Oxo-4H-1,3-benzothiazin-2-yl)-2-pyridyl]propoxy}propionic acid]",141 to 142 °C,0.031
"CSc1cc(-c2nc(=O)c3ccccc3s2)ccn1 [Example 68, 2-(2-Methylthio-4-pyridyl)-4H-1,3-benzothiazine-4-one]",173.4 to 173.5 °C,0.018
"COc1cc(-c2nc(=O)c3ccccc3s2)ccn1 [Example 70, 2-(2-Methoxy-4-pyridyl)-4H-1,3-benzothiazine-4-one]",148.8 to 150.5 °C,0.017
"O=c1nc(-c2ccnc(N3CCOCC3)c2)sc2ccccc12 [Example 73, 2-(2-Morpholinyl-4-pyridyl)-4H-1,3-benzothiazine-4-one]",157 to 158 °C,0.024
"O=c1nc(-c2ccnc(Cl)c2)sc2ccccc12 [Example 76, 2-(2-Chloro-4-pyridyl)-4H-1,3-benzothiazine-4-one]",177.8 to 178.4 °C,0.036
"COC(=O)c1ccccc1Sc1cc(-c2nc(=O)c3ccccc3s2)ccn1 [Example 77, methyl 2-{[4-(4-oxo-4H-1,3-benzothiazin-2-yl)-2-pyridyl]thio}benzoate]",137 to 137.9 °C,0.039
"O=c1nc(-c2ccccn2)sc2cc(C(F)(F)F)ccc12 [Example 85, 2-(2-Pyridyl)-7-trifluoromethyl-4H-1,3-benzothiazine-4-one]",175.8 to 177 °C,0.04
"O=C(O)CCOCCCc1ccc(-c2nc(=O)c3ccccc3s2)nc1 [Example 99, 3-{3-[6-(4-Oxo-4H-1,3-benzothiazin-2-yl)-3-pyridyl]propoxy}propionic acid]",145.2 to 146.6 °C,0.043
"O=C(O)CCOCCCc1ccnc(-c2nc(=O)c3ccccc3s2)c1 [Example 102, 3-[3-[2-(4-Oxo-4H-1,3-benzothiazin-2-yl)-4-pyridyl]propoxy]propanoic acid]",153.8 to 153.9 °C,0.036

# Continued, in another order:
melting point,SMILES,minimal effective concentration [1] [µM]
222.2 to 224 °C,"CN(C)C(=O)N(Cc1ccccc1)C(=O)c1cccc(-c2nc(=O)c3ccccc3s2)n1 [Example 53, N-Benzyl-N′,N′-dimethyl-N-[[6-(4-oxo-4H-1,3-benzothiazin-2-yl)-2-pyridyl]carbonyl]-urea]",0.032
226 to 226.1 °C,"COc1cccc(-c2nc(=O)c3ccccc3s2)n1 [Example 56, 2-(6-Methoxy-2-pyridyl)-4H-1,3-benzothiazine-4-one]",0.039
240.9 to 241 °C,"O=c1nc(-c2cccc(OCc3ccccc3)n2)sc2ccccc12 [Example 57, 2-[6-(Benzyloxy)-2-pyridyl]-4H-1,3-benzothiazine-4-one]",0.033
138.3 to 140 °C,"CCCOc1cccc(-c2nc(=O)c3ccccc3s2)n1 [Example 58, 2-(6-Propoxy-2-pyridyl)-4H-1,3-benzothiazine-4-one]",0.091
174.8 to 175.4 °C,"CCC[S+]([O-])c1cccc(-c2nc(=O)c3ccccc3s2)n1 (stereo not shown) [Example 60, 2-(6-Propylsulfinyl-2-pyridyl)-4H-1,3-benzothiazine-4-one]",0.019
173.8 to 174.5 °C,"CCCS(=O)(=O)c1cccc(-c2nc(=O)c3ccccc3s2)n1 [Example 61, 2-(6-Propylsulfonyl-2-pyridyl)-4H-1,3-benzothiazine-4-one]",0.01
228 to 228.2 °C,"Cc1ccc([S+]([O-])c2cccc(-c3nc(=O)c4ccccc4s3)n2)cc1 (stereo not shown) [Example 63, 2-{6-[(4-Methylphenyl)sulfinyl]-2-pyridyl}-4H-1,3-benzothiazine-4-one]",0.046
219.6 °C (dec.),"Cc1ccc(S(=O)(=O)c2cccc(-c3nc(=O)c4ccccc4s3)n2)cc1 [Example 64, 2-{6-[(4-Methylphenyl)sulfonyl]-2-pyridyl}-4H-1,3-benzothiazine-4-one]",0.052
159.6 to 159.8 °C,"COCOCc1cccc(-c2nc(=O)c3ccccc3s2)n1 [Example 65, 2-[(6-Methoxymethoxymethyl)-2-pyridyl]-4H-1,3-benzothiazine-4-one]",0.045
243.2 to 243.5 °C,"O=C(O)CCc1cccc(-c2nc(=O)c3ccccc3s2)n1 [Example 79, 3-[6-(4-Oxo-4H-1,3-benzothiazin-2-yl)-2-pyridyl]propionic acid]",0.061
185 to 185.5 °C,"CC(C)(C)OC(=O)c1cccc(-c2nc(=O)c3ccccc3s2)n1 [Example 80, tert-Butyl 6-(4-oxo-4H-1,3-benzothiazin-2-yl)-2-pyridinecarboxylate]",0.035
260.2 to 260.5 °C,"O=C(O)c1cccc(-c2nc(=O)c3ccccc3s2)n1 [Example 81, 6-(4-Oxo-4H-1,3-benzothiazin-2-yl)-2-pyridinecarboxylic acid]",0.012
242.6 to 244.2 °C,"O=C(NCC(F)(F)F)c1cccc(-c2nc(=O)c3ccccc3s2)n1 [Example 82, 6-(4-Oxo-4H-1,3-benzothiazin-2-yl)-N-(2,2,2-trifluoroethyl)-2-pyridinecarboxamide]",0.011
175.5 to 176.7 °C,"COCCNC(=O)c1cccc(-c2nc(=O)c3ccccc3s2)n1 [Example 83, N-(2-Methoxyethyl)-6-(4-oxo-4H-1,3-benzothiazin-2-yl)-2-pyridinecarboxamide]",0.027
174.5 to 175.3 °C,"CN(C)/C=N/S(=O)(=O)CC(C)(C)COc1cccc(-c2nc(=O)c3ccccc3s2)n1 [Example 100, N,N-(Dimethylaminomethylene)-2,2-dimethyl-3-{[6-(4-oxo-4H-1,3-benzothiazin-2-yl)-2-pyridyl]oxy}-1-propanesulfonamide]",0.036
80 to 81.6 °C,"CCCCN(C)C(=O)c1cccc(-c2nc(=O)c3ccccc3s2)n1 [Example 103, N-Butyl-N-methyl-6-(4-oxo-4H-1,3-benzothiazin-2-yl)-2-pyridinecarboxamide]",0.042
232 to 234 °C,O=C(c1cccc(-c2nc(=O)c3ccccc3s2)n1)N1CCCC1 [Example 104],0.019
